# Reference: ChEMBL document CHEMBL4145553, “Design, synthesis, and biological evaluation of novel amide and hydrazide based thioether analogs targeting Histone deacteylase (HDAC) enzymes” (Eur J Med Chem, 2018)
# Tests used:
# T47D = experiment: Growth inhibition of human T47D cells at 10 uM incubated for 48 hrs by sulforhodamine B assay relative to control; assay type: functional; conditions: values are per cent of control
# NCI/ADR-RES = experiment: Growth inhibition of human NCI/ADR-RES cells at 10 uM incubated for 48 hrs by sulforhodamine B assay relative to control; assay type: functional; conditions: values are per cent of control
# COLO 205 = experiment: Growth of human COLO205 cells at 10 uM incubated for 48 hrs by sulforhodamine B assay relative to control; conditions: COLO 205, 48 h
# OVCAR-3 = experiment: Growth of human OVCAR3 cells at 10 uM incubated for 48 hrs by sulforhodamine B assay relative to control; conditions: OVCAR-3, 48 h
# SW-620 = experiment: Growth of human SW620 cells at 10 uM incubated for 48 hrs by sulforhodamine B assay relative to control; conditions: SW-620, 48 h
# U-251 = experiment: Growth of human U251 cells at 10 uM incubated for 48 hrs by sulforhodamine B assay relative to control; conditions: U-251, 48 h
# SK-MEL-2 = experiment: Growth of human SK-MEL-2 cells at 10 uM incubated for 48 hrs by sulforhodamine B assay relative to control; conditions: SK-MEL-2, 48 h
# A549 = experiment: Growth of human A549/ATCC cells at 10 uM incubated for 48 hrs by sulforhodamine B assay relative to control; conditions: A549, 48 h
# Malme-3M = experiment: Growth of human MALME-3M cells at 10 uM incubated for 48 hrs by sulforhodamine B assay relative to control
# M14 = experiment: Growth of human M14 cells at 10 uM incubated for 48 hrs by sulforhodamine B assay relative to control; conditions: M14, 48 h
# MCF7 = experiment: Growth inhibition of human MCF7 cells at 10 uM incubated for 48 hrs by sulforhodamine B assay relative to control; assay type: functional; conditions: MCF7, 48 h, values are per cent of control
# Hs-578T = experiment: Growth inhibition of human Hs 578T cells at 10 uM incubated for 48 hrs by sulforhodamine B assay relative to control; assay type: functional; conditions: values are per cent of control
# SK-MEL-5 = experiment: Growth of human SK-MEL-5 cells at 10 uM incubated for 48 hrs by sulforhodamine B assay relative to control; conditions: SK-MEL-5, 48 h
# SK-OV-3 = experiment: Growth inhibition of human SKOV3 cells at 10 uM incubated for 48 hrs by sulforhodamine B assay relative to control; assay type: functional; conditions: SK-OV-3, 48 h, values are per cent of control
# CCRF-CEM = experiment: Growth of human CCRF-CEM cells at 10 uM incubated for 48 hrs by sulforhodamine B assay relative to control
# UACC-257 = experiment: Growth of human UACC257 cells at 10 uM incubated for 48 hrs by sulforhodamine B assay relative to control; conditions: UACC-257, 48 h
# OVCAR-8 = experiment: Growth of human OVCAR8 cells at 10 uM incubated for 48 hrs by sulforhodamine B assay relative to control; conditions: OVCAR-8, 48 h
# UACC-62 = experiment: Growth of human UACC62 cells at 10 uM incubated for 48 hrs by sulforhodamine B assay relative to control; conditions: UACC-62, 48 h
# NCI-H226 = experiment: Growth inhibition of human NCI-H226 cells at 10 uM incubated for 48 hrs by sulforhodamine B assay relative to control; assay type: functional; conditions: NCI-H226, 48 h, values are per cent of control
# MDA-MB-468 = experiment: Growth inhibition of human MDA-MB-468 cells at 10 uM incubated for 48 hrs by sulforhodamine B assay relative to control; assay type: functional; conditions: MDA-MB-468, 48 h, values are per cent of control
# LOX IMVI = experiment: Growth of human LOXIMVI cells at 10 uM incubated for 48 hrs by sulforhodamine B assay relative to control
# HCC 2998 = experiment: Growth of human HCC2998 cells at 10 uM incubated for 48 hrs by sulforhodamine B assay relative to control; conditions: HCC 2998, 48 h
# RXF 393 = experiment: Growth inhibition of human RXF393 cells at 10 uM incubated for 48 hrs by sulforhodamine B assay relative to control; assay type: functional; conditions: RXF 393, 48 h, values are per cent of control
# SNB-75 = experiment: Growth of human SNB75 cells at 10 uM incubated for 48 hrs by sulforhodamine B assay relative to control; conditions: SNB-75, 48 h
# DU-145 = experiment: Growth inhibition of human DU145 cells at 10 uM incubated for 48 hrs by sulforhodamine B assay relative to control; assay type: functional; conditions: DU-145, 48 h, values are per cent of control
# 786-0 = experiment: Growth inhibition of human 786-0 cells at 10 uM incubated for 48 hrs by sulforhodamine B assay relative to control; assay type: functional; conditions: 786-0, 48 h, values are per cent of control
# SF-295 = experiment: Growth of human SF295 cells at 10 uM incubated for 48 hrs by sulforhodamine B assay relative to control; conditions: SF-295, 48 h
SMILES,"growth, % of control at 10 µM (T47D) [%]","growth, % of control at 10 µM (NCI/ADR-RES) [%]","growth, % of control at 10 µM (COLO 205) [%]","growth, % of control at 10 µM (OVCAR-3) [%]","growth, % of control at 10 µM (SW-620) [%]","growth, % of control at 10 µM (U-251) [%]","growth, % of control at 10 µM (SK-MEL-2) [%]","growth, % of control at 10 µM (A549) [%]","growth, % of control at 10 µM (Malme-3M) [%]","growth, % of control at 10 µM (M14) [%]","growth, % of control at 10 µM (MCF7) [%]","growth, % of control at 10 µM (Hs-578T) [%]","growth, % of control at 10 µM (SK-MEL-5) [%]","growth, % of control at 10 µM (SK-OV-3) [%]","growth, % of control at 10 µM (CCRF-CEM) [%]","growth, % of control at 10 µM (UACC-257) [%]","growth, % of control at 10 µM (OVCAR-8) [%]","growth, % of control at 10 µM (UACC-62) [%]","growth, % of control at 10 µM (NCI-H226) [%]","growth, % of control at 10 µM (MDA-MB-468) [%]",other results
CCS/C(Nc1ccccc1)=C(\C#N)C(=O)Nc1ccc(C)cc1,72.1,98.4,117,97.9,101,96.6,85.3,84.5,101,112,92.3,98.9,93.6,101,85.8,99.3,96,80.3,95,103,"growth, % of control at 10 µM (LOX IMVI): 98.8%; growth, % of control at 10 µM (HCC 2998): 94.8%; growth, % of control at 10 µM (RXF 393): 103%; growth, % of control at 10 µM (SNB-75): 109%; growth, % of control at 10 µM (DU-145): 95.2%; growth, % of control at 10 µM (786-0): 87.1%; growth, % of control at 10 µM (SF-295): 95.7%"
CC(C)(C)S/C(Nc1ccccc1)=C(\C#N)C(=O)N/N=C\c1ccco1,91.4,100,102,106,94.4,94.7,103,79.6,104,105,92.3,92.5,96.9,89.3,92.2,83,94.9,93.5,92,95.8,"growth, % of control at 10 µM (LOX IMVI): 99.6%; growth, % of control at 10 µM (HCC 2998): 107%; growth, % of control at 10 µM (RXF 393): 105%; growth, % of control at 10 µM (SNB-75): 82.2%; growth, % of control at 10 µM (DU-145): 109%; growth, % of control at 10 µM (786-0): 102%; growth, % of control at 10 µM (SF-295): 102%"
CCS/C(Nc1ccccc1)=C(\C#N)C(=O)Nc1ccccc1,70.1,91.1,113,88.9,103,92.6,87.6,86.2,117,128,98.6,96.9,93.5,88.2,82.4,103,94.2,79.8,92.9,90.7,"growth, % of control at 10 µM (LOX IMVI): 97.9%; growth, % of control at 10 µM (HCC 2998): 96.1%; growth, % of control at 10 µM (RXF 393): 101%; growth, % of control at 10 µM (SNB-75): 102%; growth, % of control at 10 µM (DU-145): 102%; growth, % of control at 10 µM (786-0): 88.5%; growth, % of control at 10 µM (SF-295): 91.3%"
